Measured values from patent US20050244427A1, “Isolation and production of bioactive marine products” (priority 2004, published 2005).

The compounds below were run on Symbiodinium cells isolated from Eunicea fusca (assay: Effect of plant growth factors on fuscol production in in vitro cultures of alga cells isolated from Eunicea fusca). Details: One hundred μM added for 48 hours after 24 hours in culture medium; compared with untreated control cells; RP HPLC, detection at 240 nm; FIG. 4.
Format: cell-based
Protocol: FIG. 4 is a graph showing the induction of fuscol production in Symbiodinium cells isolated from Eunicea fusca with Methyl Jasmonate, Giberellic Acid and Salicyclic Acid.
Live Eunicea fusca was collected from Florida Keys. The tissue was homogenized in a blender using 50:50 DI/Filtered Seawater (FSW). The homogenate was strained into 50 mL Falcon tubes and centrifuged at 160×g for 5 minutes. The supernatant was discarded and the pellet was resuspended in 50:50 DI/FSW. The sample was centrifuged again, followed by three rounds of rinsing and centrifuging until the supernatant was clear. The cell pellet was layered over a Percoll gradient (30% and 70%) and centrifuged at 38×g for 10 minutes. Cells on the 30/70% interface were collected using a plastic pipet and rinsed two times in 50:50 DI/FSW water. Cells were examined by light microscopy to assess cell purity and to count the number of cells. 2.38×10^8 cells (500 μL) were removed from the sample and diluted to 2 mL with tris buffer (20 mM containing 3 mM EDTA, 5 mM MgCl2 and 5 mM β-mercaptoethanol). The sample was incubated with 1μ Ci ^3H-GGPP for 24 hrs at 29° C. and 180 RPM. The cells were centrifuged and the buffer was removed using a syringe and filtered into a scintillation vial. The cells were extracted with methylene chloride and ethyl acetate (8 times) followed by filtration into the scintillation vial containing the buffer. The crude extract was dried and weighed. The dried extract weighed 7.08 mg. The extract was partitioned between MeOH:H2O 9:1 and hexanes. The hexanes layer was dried and weighed. This layer weighed 4.77 mg. Water was added to make MeOH:H2O at a ratio of 1:1 and partitioned with methylene chloride. The CH2Cl2 layer was dried and weighed. This layer weighed 1.67 mg.
Referring to FIG. 4, the effect of growth factors on the production of fuscol in in vitro cultures of alga cells isolated from Eunicea fusca (as described above) was analyzed. […] The cells were then extracted and fuscol concentrations were determined by standard chromatographic methods (RP HPLC, detection at λ 240 nm).

Compound	production of fuscol (fuscol concentration in extracted cells)
O=C(O)c1ccccc1O [salicyclic acid]	Significantly more fuscol was produced
C=C1C[C@]23CC1(O)CC[C@H]2[C@@]12C=C[C@H](O)C(C)(C(=O)O1)[C@H]2[C@@H]3C(=O)O [giberellic acid]	Significantly more fuscol was produced
CC/C=C\CC1C(=O)CCC1CC(=O)OC (stereo not drawn) [methyl jasmonate]	Significantly more fuscol was produced
